89 molecules from a melting point compilation (Tetko et al.; mined from patent text by program, amines drawn as free bases though some values may be those of a salt) can be followed below.

Structures are written as SMILES.

For `CCCn1c(=O)c2c(NC)n[nH]c2n(Cc2ccccc2Cl)c1=O`, the melting point was above 300 °C.
As to `Nc1cc(Oc2ccc(Oc3cc(N)cc(C(F)(F)F)c3)cc2)cc(C(F)(F)F)c1`, the melting point fell in the range of 157 to 158 °C.
For `CC1=CC(c2cccc([N+](=O)[O-])c2)C(C(=O)O)=NN1` (centres undefined), the melting point is 149 °C.
With `O=C(CNC(=O)c1ccc([N+](=O)[O-])c(I(=O)=O)c1)OCC(Cl)(Cl)Cl` the figure was 128 to 130 °C.
With `CN1C(C)(C)CC(OC(=O)N=NC(=O)OC2CC(C)(C)N(C)C(C)(C)C2)CC1(C)C` the figure was 135 to 137 °C.
Molecule `CC(O)CCCOc1ccc2nc3[nH]c(=O)[nH]c3cc2c1` (centres undefined) yielded a melting point of 301 to 303 °C.
Regarding `Nc1nc(Nc2ccccc2)sc1C(=O)c1ccsc1`, the melting point lay within 171 to 172 °C.
For the molecule `Cc1nc2cnccc2n1-c1ccc(OCc2cccc(C(=O)Nc3nc4cc(F)ccc4s3)c2)cc1`, the melting point lay in the range of 244 to 246 °C.
With `Cc1ccc(/C=C/c2ccccc2[N+](=O)[O-])c([N+](=O)[O-])c1`, the melting point is 170 to 171 °C.
The figure for `CCOC(=O)/C=C/c1nc(COc2ccc(COc3nn(-c4ccccc4)cc3/C=C\c3csc(CC)n3)cc2OC)c(C)o1` is 95 to 96 °C; for `CCC(C)(C)c1cc(-c2ccc(C=C3SC(N4CCOCC4)=NC3=O)s2)ccc1O` it is 322 to 323 °C; for `NS(=O)(=O)c1ccc(OCCOc2ccc(C(=O)C(=O)O)cc2)cc1` it is 178 to 179 °C.
As to `CCCCCCCCCCCCS(=O)(=O)N1CCCSC1=C[N+](=O)[O-]`, the melting point fell in the range of 116 to 117 °C.
Regarding `COc1nc2cccnc2n(-c2ccc(Cl)cc2)c1=O`, the melting point was 242 to 243 °C.
Regarding `CCCc1ccc(NC(=O)c2cccnc2NCc2ccncc2)cc1C(F)(F)F`, the melting point was in the range of 147 to 149 °C.
For `CC(=O)OCCCNC(=O)CCC(NC(=O)C=Cc1ccco1)C(=O)NCCCOC(C)=O` (centres undefined), the melting point lay within 132 to 134 °C.
Turning to `Cc1ccccc1N1CCN(S(=O)(=O)CC23CCC(CC2=O)C3(C)C)CC1` (centres undefined), the melting point is 112 to 114 °C.
With `CCN1CCN(c2ccc(Br)nc2)CC1`, the melting point was in the range of 30 to 31 °C.
Turning to `CCCCS(=O)c1ccc(C=O)nc1` (centres undefined), the melting point lay within 90 to 91 °C.
`O=C(O)c1cc(-c2ccccc2)c2ccsc2c1` had a melting point of 222 °C.
With `CC(C)(C)OC(=O)NCOc1ccccc1C(=O)O` the figure was 141 to 144 °C; with `CCOC(=O)c1c2n(c3ccc(Cl)c(Cl)c3c1=O)CCS2`, 266 to 267 °C; with `C[C@H](NC(=O)OC(C)(C)C)C(=O)NC1CCC(Nc2cccc3c2C(=O)c2ccccc2C3=O)CC1` (some centres undefined), 151 °C.
With `Cc1nc(N2CCN(CCc3c[nH]c4ccccc34)C2=O)sc1C(=O)NCc1ccccc1` the figure was 215 to 217 °C.
In the case of `COc1cc(CCN2CCCCC2)cc(OC)c1-c1ccc(C[C@H](NC(=O)c2c(Cl)cccc2Cl)C(=O)O)cc1`, the melting point turned out to be 195 °C.
Regarding `CC(C)(C)C(=O)NCCc1ccc(O)c(O)c1`, the melting point was in the range of 144 to 146 °C.
The molecule `CC(=O)CCCCCC(=O)N[C@@H](C)C(=O)N[C@H](CCC(=O)OCc1ccccc1)C(N)=O` had a melting point of 162 °C.
With `Nc1c(C(=O)c2ccccc2)oc2ccccc12` the figure was 122 to 124 °C; with `O=C(O)C=Cc1cc([N+](=O)[O-])ccc1Br`, 185 °C.
`Fc1cccc(CCc2nnc(-c3ccc4c(c3)CCO4)o2)c1`: the melting point lay within 85 to 86 °C.
With `COCc1c(C=O)ncc2c1c1c(OCc3ccccc3)cccc1n2S(=O)(=O)c1ccc(C)cc1` the figure was 125 to 127 °C.
Regarding `CCOC(=O)CCCn1c(Nc2ccc(Cl)cc2)nc2c(Cl)ccc(C(CC)CC)c21`, the melting point lay in the range of 149 to 150 °C.
In turn, `CCOP(=O)(Cc1ccnc(C(N)=O)c1)OCC` registered a melting point of 140 to 142 °C.
Take `CS(=O)(=O)c1ccc(-n2cncc2-c2ccc(OC(F)(F)F)cc2)cc1`: the melting point was 141 to 142 °C.
For `COc1ccc(CNc2cc(OC)c(OC)c(OC)c2)cc1`, the melting point lay in the range of 77 to 78 °C.
`CC(=O)NC1C(NC(=NC(=O)OC(C)(C)C)NC(=O)OC(C)(C)C)C=C(C(=O)OCCCO)OC1C(O)C1COC(C)(C)O1` (centres undefined) displayed a melting point of 86 to 88 °C.
Regarding `O=C(O)CCNC(=O)c1cccc(NC(=O)c2csc(NC(=O)NCc3ccccc3)n2)c1`, the melting point is 157 °C.
In the case of `COC(=O)c1ccc(Cc2cc3cc(C(F)(F)F)ccc3n2S(=O)(=O)c2ccc(C(C)C)cc2)cc1`, the melting point stood at 123 °C.
`CC(Cc1ccc(OC(C)C)cc1)NCC(O)c1cccc(Cl)c1` (centres undefined): the melting point lay in the range of 58 to 61 °C.
`Brc1ccc(-c2csc(Br)n2)cc1` came in with a melting point of 117 to 119 °C.
With `NNC(=O)c1cc(N2CCN(c3ccc([N+](=O)[O-])cc3)CC2)ccn1`, the melting point is 230 to 232 °C.
For `O=C1NCCc2c1c1ccccc1n2Cc1ccccc1`, the melting point fell in the range of 209 to 212 °C.
The molecule `CCCCCCCCCCCCSC(=S)SC(C)(C#N)CCC(=O)O` (centres undefined) came in with a melting point of 58 to 59 °C.
For `CC(C)C(C(=O)O)c1ccc(Cl)cc1` (centres undefined), the melting point lay in the range of 88 to 89 °C.
Consider `COC(=O)COc1cc2cccnc2c(-c2cccc([N+](=O)[O-])c2)n1`, for which the melting point lay in the range of 160 to 162 °C.
Molecule `CC(C)Cc1nc2ccc(Br)cc2c(-c2ccccc2)c1CO` registered a melting point of 116 to 118 °C.
On to `O=S(=O)(Nc1ccc(N2CCN3CCC2CC3)cc1)c1ccccc1`, for which the melting point is 267 °C.
The figure for `Cc1cc([N+](=O)[O-])cc(C(=O)NC(C)C)c1NC(=O)c1cc(C(F)(F)F)nn1-c1ncccc1Cl` is 170 to 172 °C; for `OCc1nn(-c2cccc(C(F)(F)F)c2)c2c1CCCC2` it is 93 to 94 °C; for `COc1cc(OC)nc(Oc2cccc3c2C(=O)SC3C)n1` (centres undefined) it is 157 to 159 °C.
For the molecule `COc1ccc2sc3nc(CO)cn3c2c1`, the melting point was in the range of 189 to 190 °C.
In the case of `COc1cc(-c2cc(C)no2)cc2oc(=O)c(C)c(C)c12`, the melting point was in the range of 148 to 150 °C.
`CCOC(=O)c1conc1-c1ccc(F)c(Br)c1` showed a melting point of 96 to 97 °C.
`Cc1c(-c2cc(F)ccc2F)[nH]c(N)c1C#N` had a melting point of 146 to 147 °C.
Regarding `CCCc1c(OCCCCCOc2ccc3oc(C(=O)O)cc3c2)ccc2c1OCCC2=O`, the melting point was in the range of 192 to 195 °C.
`N#Cc1ccc(-c2ccc(OC[C@H](O)CCc3cccnc3)cc2)cc1` yielded a melting point of 135 to 136 °C.
In the case of `O=C(CC1CCCC1)c1ccc[nH]1`, the melting point was in the range of 49 to 51 °C.
With `COc1ccc(C(=O)c2ccc(OCc3nc(-c4ccccc4)oc3C)cc2)c(OC(C)(C)C(=O)O)c1` the figure was 175 to 177 °C; with `Oc1noc2ccc(Oc3ccc(C(F)(F)F)cc3Cl)cc12`, 167 to 170 °C.
For `Cc1cc(-c2ncc(OC3SCC(O)C(O)C3O)cc2F)ccn1` (centres undefined), the melting point came out at 143 °C.
Turning to `CSc1ccc(NC(=O)C2C(=O)N(c3ccccc3)N=C2C)cc1` (centres undefined), the melting point lay within 196 to 199 °C.
In turn, `O=Cc1cc(Br)ccc1C(=O)O` registered a melting point of 202 °C.
With `Cc1ncc(O)c(=O)[nH]1` the figure was above 300 °C.
As to `FC(F)(F)c1ccc(CN2CCNc3ncc(I)cc32)o1`, the melting point fell in the range of 153 to 154 °C.
In turn, `CS(=O)(=O)c1cccc(/C=C/C2=CCN(Cc3ccccc3)CC2)c1` came in with a melting point of 150 to 152 °C.
Consider `Cc1ccc(-n2c(-c3ccccc3)ccc2-c2ccccc2)cc1`, for which the melting point lay within 207 to 208 °C.
For the molecule `Cc1ccc(Nc2nc(-c3cc(-c4ccccc4)no3)cs2)nc1`, the melting point was in the range of 224 to 227 °C.
With `Cc1c(C(=O)O)cnn1-c1c(Cl)cc(Cl)cc1Cl`, the melting point fell in the range of 184 to 186 °C.
`CC(C)C[C@H](NC(=O)[C@H](Cc1c[nH]cn1)NC(=O)[C@H](Cc1cccc2ccccc12)NC(=O)OCc1ccccc1)[C@@H](O)CC=O` had a melting point of 166 to 168 °C.
The figure for `CC(C)C(NC(=O)N(C)Cc1nc2ccccc2[nH]1)C(=O)NN(C(=O)OCc1cccnc1)C(Cc1ccccc1)CC(O)CCc1ccccc1` (centres undefined) is 110 to 114 °C; for `O=C1c2cccc3cc4ccccc4c(c23)C(=O)N1CCO` it is 211 °C; for `CC(C)n1nc(-c2cc(C(N)=O)cnc2-c2ccccc2)ccc1=O` it is 229 to 230 °C.
`COC(=O)CCCCNC(=O)[C@H](Cc1ccccc1)NC(=O)OC(C)(C)C` returned a melting point of 98 to 100 °C.
For `CCC(OC(=O)CO)c1ccc(Cl)c2nc3n(c12)CCCN3c1ccc(Cl)cc1Cl` (centres undefined), the melting point lay in the range of 191 to 193 °C.
On to `Cc1c(CNc2cc(CO)cc(CO)c2)nnn1Cc1ccc(Cl)c(Cl)c1`, for which the melting point was 120 °C.
`Cc1nn(C(=O)NC(C)(C)CCc2ccccc2Cl)c(=O)n1N` had a melting point of 102 °C.
As for `CN1CCC(CNC(=O)c2ccc(-c3[nH]nc4c3C(=O)c3c(NC(=O)NN5CCOCC5)cccc3-4)s2)C1` (centres undefined), the melting point was 151 to 153 °C.
In the case of `Nc1nc2ccccc2c2c1ncn2CCCCNC(=O)c1ccccc1`, the melting point was in the range of 210 to 212 °C.
With `C=Cc1ccc2c(c1)CC(CNC(=O)OC(C)(C)C)CC2` (centres undefined) the figure was 98 to 100 °C; with `COc1ccc2c3c1OC1C(O)C(CO)(CO)CC4C(C2)N(C)CCC341` (centres undefined), above 265 °C.
On to `CCOc1ccc(C(C)=O)cc1S(N)(=O)=O`, for which the melting point is 148 to 151 °C.
`O=[N+]([O-])c1ccc2ccn(CCCCl)c2c1`: the melting point was in the range of 85 to 87 °C.
For `Nc1ccc(-c2noc(-c3cnn4c(C(F)(F)F)cc(-c5ccc(C(F)(F)F)c(OCC(F)(F)F)c5)nc34)n2)cn1`, the melting point was 284 °C.
On to `O=C1c2ccccc2C(=O)N1C[C@@H]1CCC=CO1`, for which the melting point is 87 to 88 °C.
Molecule `COc1cccc(OC(c2ccccc2)C(O)C(=O)NC(C)C)c1` (centres undefined) registered a melting point of 118 to 120 °C.
In the case of `Cn1ncnc1COc1nn2c(-c3cccs3)nncc2c1-c1ccccc1`, the melting point amounted to 209 °C.
With `CC(C)(C)c1cc(OCC(N)=S)cc(C(C)(C)C)c1O` the figure was 163 to 164 °C.
For `CCOC(=O)c1cn2c3c(cc(I)cc3c1=O)N(C)C(=O)C2`, the melting point was 278 to 283 °C.
Consider `Cc1sc(S(C)=O)nc1-c1ccccc1` (centres undefined), for which the melting point lay within 96 to 97 °C.

A word on the melting point: it is the temperature, or range, at which the solid turns liquid.
